From the supplement of paper PMC10307832

What was measured:
Assay in all cases: relative viability (nuclei count vs DMSO), 5 days (fraction); higher = more cells survive
[1] = compound: C1CNCCC1C2=CC(=NN2)C3=CC=NC=C3 + O=C(c1cc(Cc2n[nH]c(=O)c3ccccc23)ccc1F)N1CCN(C(=O)C2CC2)CC1 [Olaparib] (partner 8 µM)
Procedure, shortened: (§1)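 Relative viability divides the nuclei count in treated wells by that in vehicle wells. Lung cancer cell lines were seeded in 1536-well plates, dosed by pin tool the next day, and fixed and stained after 5 days in one step with final 0.05% Triton X-100, 1% formaldehyde and 1 ug/ml Hoechst. Dosing was a single drug or a fixed anchor-drug dose plus five library-drug doses (not always all listed) in √10 steps, and values are medians of duplicate plates imaged at 4×.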

[2] = compound: C[C@@H](N)c1ccc(C(=O)Nc2ccnc3[nH]ccc23)cc1 + Cc1nc(Nc2ncc(C(=O)Nc3c(C)cccc3Cl)s2)cc(N2CCN(CCO)CC2)n1 [Dasatinib] (partner 0.075 µM)
Procedure, shortened: as §1

[3] = compound: C[C@@H](N)c1ccc(C(=O)Nc2ccnc3[nH]ccc23)cc1 + Cc1nc(NC(=O)N2CCC[C@H]2C(N)=O)sc1-c1ccnc(C(C)(C)C(F)(F)F)c1 [Alpelisib] (partner 2 µM)
Procedure, shortened: as §1

[4] = compound: C1CNCCC1C2=CC(=NN2)C3=CC=NC=C3 + C[C@]1(O)C[C@@H](c2nc(-c3ccc4ccc(-c5ccccc5)nc4c3)c3c(N)nccn32)C1 [Linsitinib] (partner 1 µM)
Procedure, shortened: as §1

Cell Line | relative viability ([1]; first compound 0.08 µM) | relative viability ([1]; first compound 0.8 µM) | relative viability ([1]; first compound 2.53 µM) | relative viability ([1]; first compound 8 µM) | relative viability ([2]; first compound 0.04 µM) | relative viability ([2]; first compound 0.1265 µM) | relative viability ([2]; first compound 0.4 µM) | relative viability ([2]; first compound 1.265 µM) | relative viability ([2]; first compound 4 µM) | relative viability ([3]; first compound 0.04 µM) | relative viability ([3]; first compound 0.1265 µM) | relative viability ([3]; first compound 0.4 µM) | relative viability ([3]; first compound 1.265 µM) | relative viability ([3]; first compound 4 µM) | relative viability ([4]; first compound 0.08 µM) | relative viability ([4]; first compound 0.8 µM) | relative viability ([4]; first compound 2.53 µM) | relative viability ([4]; first compound 8 µM)
NCI-H838 | 0.708 | 0.795 | 0.815 | 0.799 | 0.221 | 0.305 | 0.26 | 0.187 | 0.233 | 0.909 | 0.884 | 0.773 | 0.571 | 0.344 | 0.969 | 1.05 | 1.07 | 0.983
NCI-H661 | 0.705 | 0.757 | 0.75 | 0.733 | 0.702 | 0.878 | 0.893 | 0.723 | 0.55 | 0.77 | 1.05 | 0.914 | 0.157 | 0.634 | 0.534 | 0.524 | 0.528 | 0.584
NCI-H1734 | 0.581 | 0.639 | 0.598 | 0.635 | 0.347 | 0.445 | 0.38 | 0.284 | 0.351 | 0.747 | 0.638 | 0.622 |  | 0.487 | 0.845 | 0.885 | 0.908 | 0.811
NCI-H596 | 0.733 | 0.709 | 0.687 | 0.72 | 0.671 | 0.537 | 0.493 |  | 0.557 | 0.556 | 0.496 | 0.508 | 0.498 | 0.409 | 0.894 | 1.12 | 1.03 | 1.03
NCI-H1944 | 0.403 | 0.384 | 0.389 | 0.384 | 0.183 | 0.192 | 0.182 | 0.183 | 0.159 | 0.981 | 0.796 | 0.928 |  | 0.657 | 1.14 | 1.08 | 1.25 | 1.1
LK-2 |  | 0.872 | 0.897 | 0.707 | 0.375 |  | 0.339 |  | 0.424 | 1.3 | 1.02 | 1.17 |  | 0.83 |  | 0.751 | 0.427 | 0.519
HCC-15 | 0.694 | 0.789 | 0.766 | 0.588 | 0.633 | 0.574 | 0.603 |  | 0.442 | 0.969 | 0.871 | 0.996 |  | 0.917 | 0.809 | 0.903 | 0.937 | 0.905
NCI-H727 | 0.76 | 0.798 | 0.669 | 0.69 | 0.628 | 0.529 | 0.71 | 0.479 | 0.725 | 0.572 | 0.809 | 0.41 | 0.937 | 0.786 | 0.362 | 0.338 | 0.294 | 0.21
HOP-62 | 0.234 | 0.386 | 0.275 | 0.47 | 0.435 | 0.632 | 0.617 | 0.515 | 0.303 | 0.761 | 0.825 | 0.793 | 0.705 | 0.805 | 0.892 | 1.12 | 1.19 | 1.08
NCI-H3122 | 0.571 | 0.6 | 0.583 | 0.61 | 1.06 | 0.882 | 0.919 | 0.455 | 0.915 | 0.827 | 0.76 | 0.827 | 0.762 | 0.797 | 0.981 | 0.981 | 1.06 | 1.04
